Reference: patent US10035760B2, “Inhibitors of human immunodeficiency virus replication” (priority 2013, dated 2018)
Like-named read-outs stand apart in the source and are kept apart here.

Tested on: recombinant NL4-3 virus (Renilla luciferase) in MT-2 cells
Test: HIV cell culture assay (antiviral activity, luciferase readout in infected MT-2 cells)
Format: cell-based
Conditions: Renilla
Outline: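 Nef-deleted NL4-3 carrying Renilla luciferase, produced by 293T transfection, used to infect MT-2 cells for 4–5 days with serial compound dilutions. Live-cell luciferase signal read as infection marker; EC50 from exponential median-effect equation.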

[1] = NL43, read-out: Activity, antiviral activity class, recombinant NL4-3 Renilla luciferase virus in MT-2 cells
[2] = NL43, recombinant NL4-3 Renilla luciferase virus in MT-2 cells

Row | SMILES | EC50 [1] [nM] | EC50 [2] [nM]
1 | CCN(C(=O)[C@H](Cc1ccccc1)NC(=O)NS(=O)(=O)c1ccccc1C)c1ccccc1 [Example CA-68, (S)—N-ethyl-N, 3-diphenyl-2-(3-(o-tolylsulfonyl)ureido)propanamide] | 100 to 1000 | –
2 | Cc1ccccc1N(C)C(=O)[C@H](Cc1ccccc1)NC(=O)NS(=O)(=O)c1ccccc1C [Example CA-69, (S)—N-methyl-3-phenyl-N-(o-tolyl)-2-(3-(o-tolylsulfonyl)ureido)propanamide] | 1000 to 10000 | –
3 | Cc1ccccc1S(=O)(=O)NC(=O)N[C@@H](Cc1ccccc1)C(=O)N(c1ccccc1)C(C)C [Example CA-70, (S)—N-isopropyl-N, 3-diphenyl-2-(3-(o-tolylsulfonyl)ureido)propanamide] | 100 to 1000 | –
4 | Cc1ccccc1S(=O)(=O)NC(=O)N[C@@H](Cc1ccccc1)C(=O)N(C)c1ccc2ncccc2c1 [Example CA-71, (S)—N-methyl-3-phenyl-N-(quinolin-6-yl)-2-(3-(o-tolylsulfonyl)ureido)propanamide] | < 100 | –
5 | Cc1ccc2cc(N(C)C(=O)[C@H](Cc3ccccc3)NC(=O)NS(=O)(=O)c3ccccc3C)ccc2n1 [Example CA-72, (S)—N-methyl-N-(2-methylquinolin-6-yl)-3-phenyl-2-(3-(o-tolylsulfonyl)ureido)propanamide] | < 100 | 30
6 | Cc1ccccc1S(=O)(=O)NC(=O)N[C@@H](Cc1ccccc1)C(=O)N(C)c1ccc2ncn(C)c2c1 [Example CA-73, (S)—N-methyl-N-(1-methyl-H-benzo[d]imidazol-6-yl)-3-phenyl-2-(3-(o-tolylsulfonyl)ureido)propanamide] | 100 to 1000 | –
7 | CCn1c(C)nc2cc(N(C)C(=O)[C@H](Cc3ccccc3)NC(=O)NS(=O)(=O)c3ccccc3C)ccc21 [Example CA-74, (S)—N-(1-ethyl-2-methyl-1H-benzo[d]imidazol-5-yl)-N-methyl-3-phenyl-2-(3-(o-tolylsulfonyl)ureido)propanamide] | 1000 to 10000 | 2030
8 | Cc1ccccc1S(=O)(=O)NC(=O)N[C@@H](Cc1ccccc1)C(=O)N(C)c1ccc2nccnc2c1 [Example CA-75, (S)—N-methyl-3-phenyl-N-(quinoxalin-6-yl)-2-(3-(o-tolylsulfonyl)ureido)propanamide] | 100 to 1000 | –
9 | Cc1ccccc1S(=O)(=O)NC(=O)N[C@@H](Cc1ccccc1)C(=O)N(C)c1ccc2c(c1)CCO2 [Example CA-76, (S)—N-(2,3-dihydrobenzofuran-5-yl)-N-methyl-3-phenyl-2-(3-(o-tolylsulfonyl)ureido)propanamide] | < 100 | –
10 | COc1ccc(N(C)C(=O)[C@H](Cc2ccccc2)NC(=O)NS(=O)(=O)c2ccccc2C)cc1C [Example CA-77, (S)—N-(4-methoxy-3-methylphenyl)-N-methyl-3-phenyl-2-(3-(o-tolylsulfonyl)ureido)propanamide] | < 100 | –
11 | CCN(C(=O)[C@H](Cc1ccccc1)NC(=O)NS(=O)(=O)c1ccccc1C)c1ccc(OC)c(C)c1 [Example CA-78, (S)—N-ethyl-N-(4-methoxy-3-methylphenyl)-3-phenyl-2-(3-(o-tolylsulfonyl)ureido)propanamide] | 100 to 1000 | 120
12 | Cc1ccccc1S(=O)(=O)NC(=O)N[C@@H](Cc1ccccc1)C(=O)N(C)c1ccc2c(c1)CCCO2 [Example CA-79, (S)—N-(chroman-6-yl)-N-methyl-3-phenyl-2-(3-(o-tolylsulfonyl)ureido)propanamide] | < 100 | –
13 | CCN(C(=O)[C@H](Cc1ccccc1)NC(=O)NS(=O)(=O)c1ccccc1C)c1ccc2ncccc2c1 [Example CA-80, (S)—N-ethyl-3-phenyl-N-(quinolin-6-yl)-2-(3-(o-tolylsulfonyl)ureido)propanamide] | < 100 | 30
14 | CCN(C(=O)[C@H](Cc1ccccc1)NC(=O)NS(=O)(=O)c1ccccc1C)c1ccc2c(c1)CCCO2 [Example CA-81, (S)—N-(chroman-6-yl)-N-ethyl-3-phenyl-2-(3-(o-tolylsulfonyl)ureido)propanamide] | < 100 | 40
15 | Cc1ccc(N(C)C(=O)[C@H](Cc2ccccc2)NC(=O)NS(=O)(=O)c2ccccc2C)cc1 [Example CA-82, (S)—N-methyl-3-phenyl-N-(p-tolyl)-2-(3-(o-tolylsulfonyl)ureido)propanamide] | 100 to 1000 | –
16 | CCN(C(=O)[C@H](Cc1ccccc1)NC(=O)NS(=O)(=O)c1ccccc1C)c1ccc2nc(C)ccc2c1 [Example CA-83, (S)—N-ethyl-N-(2-methylquinolin-6-yl)-3-phenyl-2-(3-(o-tolylsulfonyl)ureido)propanamide] | < 100 | –
17 | CCOc1ccc(N(C)C(=O)[C@H](Cc2ccccc2)NC(=O)NS(=O)(=O)c2ccccc2C)cc1 [Example CA-84, (S)—N-(4-ethoxyphenyl)-N-methyl-3-phenyl-2-(3-(o-tolylsulfonyl)ureido)propanamide] | < 100 | –

Row | SMILES | EC50 [1] [nM] | EC50 [2] [nM]
18 | CC(=O)Nc1ccc(N(C)C(=O)[C@H](Cc2ccccc2)NC(=O)NS(=O)(=O)c2ccccc2C)cc1O [Example CA-85, (S)—N-(4-acetamido-3-hydroxyphenyl)-N-methyl-3-phenyl-2-(3-(o-tolylsulfonyl)ureido)propanamide] | 1000 to 10000 | –
19 | Cc1nc2ccc(N(C)C(=O)[C@H](Cc3ccccc3)NC(=O)NS(=O)(=O)c3ccccc3C)cc2o1 [Example CA-86, (S)—N-methyl-N-(2-methylbenzo[d]oxazol-6-yl)-3-phenyl-2-(3-(o-tolylsulfonyl)ureido)propanamide] | < 100 | –
20 | Cc1nc2cc(N(C)C(=O)[C@H](Cc3ccccc3)NC(=O)NS(=O)(=O)c3ccccc3C)ccc2s1 [Example CA-87, (S)—N-methyl-N-(2-methylbenzo[d]thiazol-5-yl)-3-phenyl-2-(3-(o-tolylsulfonyl)ureido)propanamide] | 100 to 1000 | –
21 | Cc1ccccc1S(=O)(=O)NC(=O)N[C@@H](Cc1ccccc1)C(=O)N(C)c1ccc2scnc2c1 [Example CA-88, (S)—N-(benzo[d]thiazol-5-yl)-N-methyl-3-phenyl-2-(3-(o-tolylsulfonyl)ureido)propanamide] | < 100 | 60
22 | CCN(C(=O)[C@H](Cc1ccccc1)NC(=O)NS(=O)(=O)c1ccccc1C)c1ccc(O)c(NC=O)c1 [Example CA-89, (S)—N-ethyl-N-(3-formamido-4-hydroxyphenyl)-3-phenyl-2-(3-(o-tolylsulfonyl)ureido)propanamide] | 100 to 1000 | 600
23 | Cc1ccccc1S(=O)(=O)NC(=O)N[C@@H](Cc1ccccc1)C(=O)N(C)c1ccc(O)c(NC=O)c1 [Example CA-90, (S)—N-(3-formamido-4-hydroxyphenyl)-N-methyl-3-phenyl-2-(3-(o-tolylsulfonyl)ureido)propanamide] | 1000 to 10000 | –
24 | Cc1ccccc1S(=O)(=O)NC(=O)N[C@@H](Cc1ccccc1)C(=O)N(C)c1cccc(C#N)c1 [Example CA-91, (S)—N-(3-cyanophenyl)-N-methyl-3-phenyl-2-(3-(o-tolylsulfonyl)ureido)propanamide] | 100 to 1000 | –
25 | Cc1ccccc1S(=O)(=O)NC(=O)N[C@@H](Cc1ccccc1)C(=O)N(C)c1ccc(NC(=O)N(C)C)cc1 [Example CA-92, (S)—N-(4-(3,3-dimethylureido)phenyl)-N-methyl-3-phenyl-2-(3-(o-tolylsulfonyl)ureido)propanamide] | 1000 to 10000 | –
26 | COC(=O)Nc1ccc(N(C)C(=O)[C@H](Cc2ccccc2)NC(=O)NS(=O)(=O)c2ccccc2C)cc1 [Example CA-93, (S)-methyl (4-(N-methyl-3-phenyl-2-(3-(o-tolylsulfonyl)ureido)propanamido)phenyl)carbamate] | < 100 | –
27 | Cc1ccccc1S(=O)(=O)NC(=O)N[C@@H](Cc1ccccc1)C(=O)N(C)c1cccc(C(N)=O)c1 [Example CA-94, (S)-3-(N-methyl-3-phenyl-2-(3-(o-tolylsulfonyl)ureido)propanamido)benzamide] | 1000 to 10000 | 3260
28 | Cc1ccccc1S(=O)(=O)NC(=O)N[C@@H](Cc1ccccc1)C(=O)N(C)c1ccc2ncsc2c1 [Example CA-95, (S)—N-(benzo[d]thiazol-6-yl)-N-methyl-3-phenyl-2-(3-(o-tolylsulfonyl)ureido)propanamide] | < 100 | –
29 | Cc1ccccc1S(=O)(=O)NC(=O)N[C@@H](Cc1ccccc1)C(=O)N(C)c1ccc2ncncc2c1 [Example CA-96, (S)—N-methyl-3-phenyl-N-(quinazolin-6-yl)-2-(3-(o-tolylsulfonyl)ureido)propanamide] | 100 to 1000 | –
30 | Cc1ccccc1S(=O)(=O)NC(=O)N[C@@H](Cc1ccccc1)C(=O)N(C)c1ccc(C#N)cc1 [Example CA-97, (S)—N-(4-cyanophenyl)-N-methyl-3-phenyl-2-(3-(o-tolylsulfonyl)ureido)propanamide] | 100 to 1000 | –
31 | Cc1ccccc1S(=O)(=O)NC(=O)N[C@@H](Cc1ccccc1)C(=O)N(C)c1ccc2cccnc2c1 [Example CA-98, (S)—N-methyl-3-phenyl-N-(quinolin-7-yl)-2-(3-(o-tolylsulfonyl)ureido)propanamide] | 100 to 1000 | 120
32 | Cc1ccccc1S(=O)(=O)NC(=O)N[C@@H](Cc1ccccc1)C(=O)N(C)c1ccc2cc[nH]c(=O)c2c1 [Example CA-99, (S)—N-methyl-N-(1-oxo-1,2-dihydroisoquinolin-7-yl)-3-phenyl-2-(3-(o-tolylsulfonyl)ureido)propanamide] | 1000 to 10000 | –
33 | Cc1ccccc1S(=O)(=O)NC(=O)N[C@@H](Cc1ccccc1)C(=O)N(C)c1ccc(F)c(C(N)=O)c1 [Example CA-100, (S)-2-fluoro-5-(N-methyl-3-phenyl-2-(3-(o-tolylsulfonyl)ureido)propanamido)benzamide] | 1000 to 10000 | –
34 | Cc1ccccc1S(=O)(=O)NC(=O)N[C@@H](Cc1ccccc1)C(=O)N(C)c1cccc2[nH]cnc12 [Example CA-101, (S)—N-(1H-benzo[d]imidazol-4-yl)-N-methyl-3-phenyl-2-(3-(o-tolylsulfonyl)ureido)propanamide] | 1000 to 10000 | –
